Data on eleven compounds can be found in patent US20250236627A1, “CERTAIN OCTAHYDROFURO[3,4- B]PYRAZINES AS GLP-1 RECEPTOR MODULATORS” (ASTRAZENECA AB, priority 2021, published 2025).

Molecules are shown by their SMILES.

One experiment addresses T1, human GLP-1R receptor (Homo sapiens, UniProt P43220, L260F).
T1 construct: expressed in transfected cells; host or cells: CHO-K1 (ATCC CCL-61)
Put plainly: CHOK1 GLP-1R cAMP Assay. It counts as cell-based. The following applies: CHO-K1 cell line stably expressing human GLP-1R; HTRF cAMP detection. On the procedure:
A cell line stably expressing the human GLP-1R receptor (NM_002062.5, including the naturally-occurring variant Leu260Phe) in a CHO-K1 (ATCC® CCL-61™) was used for assay.
GLP-1 Receptor mediated agonist activity was determined in a cell based assay measuring cAMP levels in cells using Homogeneous Time-Resolved Fluorescence (HTRF) cAMP detection kit (CisBio catalog #62AM4PEC, cAMP Gs Dynamic range kit). The cAMP detection method is based on a competitive immunoassay, in which cAMP produced by the cells and cAMP labeled with the dye d2 compete for binding to a Europium-Cryptate-labeled anti-cAMP antibody. The specific HTRF signal is inversely proportional to the concentration of cAMP.
Compounds were added to individual well in 384 well-assay plates (Greiner #784076) using an Echo (LabCyte) dispenser from 10 mM stocks. Varying concentration of compounds were added to wells, and dimethyl sulfoxide was used to normalize each well to a volume of 100 nanoliter. A dose response curve of GLP1(7-36)NH2 (Bachem H-6795) was included in each run. 5 μL of cAMP concentration response standards are applied in specified wells in the assay plates.
Cryo-preserved cells are thawed and resuspended in assay buffer pre-heated to 37° C. (20 mM 2-[4-(2-hydroxyethyl)piperazin-1-yl]ethanesulfonic acid (HEPES) pH 7.4, lx Hank's Balanced Salt Solution (HBSS, Life Technologies #14065) supplemented with 0.1% (w/v) bovine serum albumin (Sigma, A-7030)). Cells were centrifuged at 250*g for 5 min at room temperature, and resuspend in room tempered assay buffer to a final density of 0.16*10^6 cell/mL, to deliver 800 cells/well. 5 μL of assay buffer with 1 mM 3-isobutyl-1-methylxanthin (IBMX; Sigma cat I-7018) was dispensed per well in assay plates using a multidrop combi (Thermo Scientific) subsequently 5 μL of cell suspension was distributed to relevant wells in the assay using a multidrop dispenser. Assay plates were incubated 20 min at room temperature.
Detection reagents, Europium-Cryptate-labeled anti-cAMP antibody and cAMP labeled with the dye d2, are diluted in lysis buffer, provided by the manufacturer. 5 μL of each detection reagent is supplemented to each assay well using a multidrop dispenser. Assay plates are incubated in the dark for at least one hour. The HTRF signal is measured using the HTRF module (excitation: 337 nm, emission A: 665 nm and emission B: 620 nm) in Pherastar FSX (BMG Labtech).
Raw data were converted to pM cAMP using the cAMP standard curve included in each run. Converted data were further analyzed in Genedata Screener (Genedata) and EC50 determinations were made from agonist dose-response curves analyzed with a curve fitting program using a 4-parameter logistic dose response equation (Equation y=A+((B−A)/1+((C/x)^D))) where A is no stimulation, B is full stimulation, C is the EC50 and D is the Hill slope). The percent effect was determined relative to a saturating concentration of a full GLP-1R agonist (GLP1(7-36)NH2 has 100% effect in this assay setup).

Experiment [1] deals with T2, endogenous human glucagon-like peptide 1 receptor (GLP-1R) (Homo sapiens, UniProt P43220).
T2 construct: endogenous human glucagon-like peptide 1 receptor (GLP-1R) in a pancreatic insulinoma cell line; host or cells: EndoC-βH1 human pancreatic β cell line
The experiment in a line: EndoC cAMP Accumulation Assay. The experiment is classed as cell-based. Particulars: EndoC-βH1 human pancreatic β cell line; HTRF cAMP assay. The text has this:
EndoC cAMP Accumulation Assay
A HTRF (Homogeneous Time-Resolved Fluorescence) cAMP assay (cAMP Gs dynamic kit; CisoBio Cat #62AM4PEJ) was used to identify agonists of the endogenous human glucagon-like peptide 1 receptor (GLP-1R) in a pancreatic insulinoma cell line (EndoC-βH1). […] EndoC-βH1 cells have detectable GLP-1R mRNA as detected by qPCR^1. […] The EndoC-βH1 cell line is a valid model of human beta cells and applicable for screenings to identify novel drug target candidates (Mol. Metab., 2018, 8, 144-157). CisBio HTRF cAMP kits are based on a competitive immunoassay using cryptate-labelled anti-cAMP antibody and d2-labeled cAMP. The detection kit is intended for the direct quantitative determination of cAMP. The specific signal (i.e. energy transfer) is inversely proportional to the concentration of cAMP in the standard or sample. Test compounds (10 mM in DMSO) were diluted into assay buffer (HBSS (Sigma #H8264) supplemented with 25 mM HEPES (Gibco #15630, pH 7.4), 0.1% BSA (Sigma #A3059) and 0.5 mM IBMX (Sigma #I7018) included fresh on the day of the assay) into 96 well U-bottom plates (Greiner #650201). Diluted compounds were transferred to ECHO source PP plates (Labcyte #P-05525) and dose response curves were dispensed acoustically using ECHO 550 into black shallow-well u-bottom 384-well HTRF Assay Plates (Corning 4514).
Cryovials of EndoC-H1 (supplied at 1×10e^7 cells/vial) were used directly for screening. The cryovials and were removed from LN2 and thawed rapidly in a 37° C. water bath. The cells were resuspended in assay buffer and centrifuged at 300 g for 5 min. Cells were resuspended in assay buffer at the appropriate concentration, typically at 12e5 cells per mL (3000 cells per well, dependent on cell batch) and 2.5 μL diluted cells were added to all wells of destination plate by Multidrop combi reagent dispenser (Thermofisher). The plates were incubated at room temperature for 30 min. The assay was stopped by adding 2.5 μL anti-cAMP cryptate solution to all wells and 2.5 μL cAMP-d2 solution (both diluted 1:20 in lysis buffer) to columns 1-22 by Combi drop. A volume of 2.5 μL cAMP-d2 solution was added to wells E23 to P24 and 2.5 μL lysis buffer added to wells A23 to D24 by multichannel pipette. The plates were incubated at room temperature for 1 hr and read on an Envision plate reader using excitation wavelength of 320 nm and emission of 590 nm and 660 nm.
Raw data from Envision is converted to % DeltaF according to the manufacturer's instructions. Dose response curves are analysed via 4-Parameter Logistical Analysis and assay plate Z′ values obtained. Samples are graphed as percentage (%) activation plots compared to GIP (1-42, Bachem H-5645) with assay window defined by negative control as basal cell cAMP levels and positive control are defined by maximum GIP (82.5 nM) signal. GLP1 (7-36 amide, Bachem H-6795) dose response curve was included on all plates.
On the technique in general: Time-resolved FRET reads energy transfer from a long-lived donor to a nearby acceptor.

T2 sequence (P43220 24-463): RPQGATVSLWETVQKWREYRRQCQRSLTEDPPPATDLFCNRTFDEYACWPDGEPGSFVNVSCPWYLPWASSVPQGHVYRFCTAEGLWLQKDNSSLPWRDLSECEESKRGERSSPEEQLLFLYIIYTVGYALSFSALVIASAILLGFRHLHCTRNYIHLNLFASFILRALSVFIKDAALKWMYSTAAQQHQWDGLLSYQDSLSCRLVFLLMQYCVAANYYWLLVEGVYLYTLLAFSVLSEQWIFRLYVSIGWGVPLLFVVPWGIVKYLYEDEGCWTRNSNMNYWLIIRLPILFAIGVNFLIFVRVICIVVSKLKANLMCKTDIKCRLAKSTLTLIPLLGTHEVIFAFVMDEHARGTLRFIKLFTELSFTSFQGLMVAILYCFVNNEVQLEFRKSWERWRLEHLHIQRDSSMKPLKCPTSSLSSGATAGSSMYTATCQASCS
T1 sequence (P43220 24-463 L260F): as the sequence (P43220 24-463) above, with L237F counted along it

As a reminder, the EC50 is the concentration that produces a half-maximal response. Read a high EC50 as lower potency in that assay. Regarding `C[C@]1(c2ccc(Cl)cn2)Oc2cccc(N3CCN(Cc4nc5c(Cl)cc(C(=O)O)cc5n4C[C@@H]4CCCO4)[C@H]4COC[C@H]43)c2O1` (single isomer, unassigned) [Example 4a, 4-Chloro-2-(((4aR*,7aS*)-4-((R*)-2-(5-chloropyridin-2-yl)-2-methylbenzo[d][1,3]dioxol-4-yl)hexahydrofuro[3,4-b]pyrazin-1(2H)-yl)methyl)-1-(((S)-tetrahydrofuran-2-yl)methyl)-1H-benzo[d]imidazole-6-carboxylic acid], the values for the EC50 (at human GLP-1R receptor; in experiment [1]) were 5.1 nM and 4.6 nM, respectively.

For the compound `C[C@]1(c2ccc(Cl)cn2)Oc2cccc(N3CCN(Cc4nc5c(Cl)cc(C(=O)O)cc5n4C[C@@H]4CCCO4)[C@H]4COC[C@H]43)c2O1` (single isomer, unassigned) [Example 4b, 4-Chloro-2-(((4aR*,7aS*)-4-((R*)-2-(5-chloropyridin-2-yl)-2-methylbenzo[d][1,3]dioxol-4-yl)hexahydrofuro[3,4-b]pyrazin-1(2H)-yl)methyl)-1-(((S)-tetrahydrofuran-2-yl)methyl)-1H-benzo[d]imidazole-6-carboxylic acid], the figures for the EC50 (at human GLP-1R receptor; in experiment [1]) were 80 nM and 130 nM, respectively.

As to `C[C@]1(c2ccc(Cl)cn2)Oc2cccc(N3CCN(Cc4nc5ccc(C(=O)O)cc5n4C[C@@H]4CCO4)[C@H]4COC[C@H]43)c2O1` (single isomer, unassigned) [Example 5c, 2-(((4aR*,7aS*)-4-((R*)-2-(5-Chloropyridin-2-yl)-2-methylbenzo[d][1,3]dioxol-4-yl)hexahydrofuro[3,4-b]pyrazin-1(2H)-yl)methyl)-1-(((S)-oxetan-2-yl)methyl)-1H-benzo[d]imidazole-6-carboxylic acid], the results for the EC50 (on human GLP-1R receptor; in experiment [1]) were 100 nM and 610 nM, respectively.

With `C[C@]1(c2ccc(Cl)cn2)Oc2cccc(N3CCN(Cc4nc5ccc(C(=O)O)cc5n4C[C@@H]4CCO4)[C@H]4COC[C@H]43)c2O1` (single isomer, unassigned) [Example 5d, 2-(((4aR*,7aS*)-4-((R*)-2-(5-Chloropyridin-2-yl)-2-methylbenzo[d][1,3]dioxol-4-yl)hexahydrofuro[3,4-b]pyrazin-1(2H)-yl)methyl)-1-(((S)-oxetan-2-yl)methyl)-1H-benzo[d]imidazole-6-carboxylic acid], the EC50 amounted to 330 nM at human GLP-1R receptor and 2100 nM in experiment [1].

For the compound `C[C@]1(c2ccc(Cl)cc2F)Oc2cccc(N3CCN(Cc4nc5ccc(C(=O)O)cc5n4C[C@@H]4CCO4)[C@H]4COC[C@H]43)c2O1` (single isomer, unassigned) [Example 6b, 2-(((4aR*,7aS*)-4-((R*)-2-(4-Chloro-2-fluorophenyl)-2-methylbenzo[d][1,3]dioxol-4-yl)hexahydrofuro[3,4-b]pyrazin-1(2H)-yl)methyl)-1-(((S)-oxetan-2-yl)methyl)-1H-benzo[d]imidazole-6-carboxylic acid], the EC50 at human GLP-1R receptor amounted to 54 nM; in experiment [1], 300 nM.

For `C[C@]1(c2ccc(Cl)cc2F)Oc2cccc(N3CCN(Cc4nc5ccc(C(=O)O)cc5n4C[C@@H]4CCO4)[C@H]4COC[C@H]43)c2O1` (single isomer, unassigned) [Example 6c, 2-(((4aR*,7aS*)-4-((R*)-2-(4-Chloro-2-fluorophenyl)-2-methylbenzo[d][1,3]dioxol-4-yl)hexahydrofuro[3,4-b]pyrazin-1(2H)-yl)methyl)-1-(((S)-oxetan-2-yl)methyl)-1H-benzo[d]imidazole-6-carboxylic acid], the results for the EC50 (at human GLP-1R receptor; in experiment [1]) were 39 nM and 150 nM, respectively.

Turning to `C[C@]1(c2ccc(Cl)cc2F)Oc2cccc(N3CCN(Cc4nc5ccc(C(=O)O)cc5n4C[C@@H]4CCO4)[C@H]4COC[C@H]43)c2O1` (single isomer, unassigned) [Example 6d, 2-(((4aR*,7aS*)-4-((R*)-2-(4-Chloro-2-fluorophenyl)-2-methylbenzo[d][1,3]dioxol-4-yl)hexahydrofuro[3,4-b]pyrazin-1(2H)-yl)methyl)-1-(((S)-oxetan-2-yl)methyl)-1H-benzo[d]imidazole-6-carboxylic acid], the EC50 stood at 520 nM on human GLP-1R receptor and 1100 nM in experiment [1].

Turning to `C[C@]1(c2ccc(Cl)cc2F)Oc2cccc(N3CCN(Cc4nc5ccc(C(=O)O)cc5n4CCn4cccn4)[C@H]4COC[C@H]43)c2O1` (single isomer, unassigned) [Example 7a], the figures for the EC50 (at human GLP-1R receptor; in experiment [1]) were 46 nM and 19 nM, respectively.

Take `C[C@]1(c2ccc(Cl)cc2F)Oc2cccc(N3CCN(Cc4nc5ccc(C(=O)O)cc5n4CCn4cccn4)[C@H]4COC[C@H]43)c2O1` (single isomer, unassigned) [Example 7c]: the results for the EC50 (at human GLP-1R receptor; in experiment [1]) were 110 nM and 3900 nM, respectively.

In the case of `C[C@]1(c2ccc(Cl)cn2)Oc2cccc(N3CCN(Cc4nc5ccc(C(=O)O)cc5n4C[C@@H]4CCCO4)[C@H]4COC[C@H]43)c2O1` (single isomer, unassigned) [Example 8b, 2-(((4aR*,7aS*)-4-((R*)-2-(5-Chloropyridin-2-yl)-2-methylbenzo[d][1,3]dioxol-4-yl)hexahydrofuro[3,4-b]pyrazin-1(2H)-yl)methyl)-1-(((S)-tetrahydrofuran-2-yl)methyl)-1H-benzo[d]imidazole-6-carboxylic acid], the EC50 on human GLP-1R receptor was 530 nM; in experiment [1] it was 1100 nM.

`C[C@]1(c2ccc(Cl)cn2)Oc2cccc(N3CCN(Cc4nc5c(F)cc(C(=O)O)cc5n4C[C@@H]4CCO4)[C@H]4COC[C@H]43)c2O1` (single isomer, unassigned) [Example 9b, 2-((4aR*,7aS*)-4-((R*)-2-(5-Chloropyridin-2-yl)-2-methylbenzo[d][1,3]dioxol-4-yl)hexahydrofuro[3,4-b]pyrazin-1(2H)-yl)methyl)-4-fluoro-1-(((S)-oxetan-2-yl)methyl)-1H-benzo[d]imidazole-6-carboxylic acid]: the EC50 at human GLP-1R receptor came to 180 nM; in experiment [1] it was 660 nM.
